Laboratory results as given in publication PMC11314561, “Design and Synthesis of Novel Aminoindazole-pyrrolo[2,3-b]pyridine Inhibitors of IKKα That Selectively Perturb Cellular Non-Canonical NF-κB Signalling” (Molecules, 2024).

How the values were obtained:
[1] = molecular target: SAPK2b(h) (Homo sapiens, UniProt Q15759); assay: kinase panel; assay type: biochemical
In short: (§1)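 Percentage inhibition was recorded for each compound against a broad kinase panel of 231 enzymes. Because of its close structural resemblance to another analogue, one compound was screened against 98 chosen kinases.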

[2] = molecular target: CK2α2(h) (Homo sapiens, UniProt P19784); assay: kinase panel; assay type: biochemical
In short: as §1

[3] = molecular target: CK1γ2(h) (Homo sapiens, UniProt P78368); assay: kinase panel; assay type: biochemical
In short: as §1

[4] = molecular target: Pim-2(h) (Homo sapiens, UniProt Q9P1W9); assay: kinase panel; assay type: biochemical
In short: as §1

[5] = molecular target: NEK11(h) (Homo sapiens, UniProt Q8NG66); assay: kinase panel; assay type: biochemical
In short: as §1

[6] = molecular target: NEK3(h) (Homo sapiens, UniProt P51956); assay: kinase panel; assay type: biochemical
In short: as §1

[7] = molecular target: PKA(h) (Homo sapiens, UniProt P17612); assay: kinase panel; assay type: biochemical
In short: as §1

[8] = molecular target: Itk(h) (Homo sapiens, UniProt Q08881); assay: kinase panel; assay type: biochemical
In short: as §1

[9] = molecular target: FGFR4(h) (Homo sapiens, UniProt P22455); assay: kinase panel; assay type: biochemical
In short: as §1

[10] = molecular target: MAPK2(h) (Homo sapiens, UniProt P28482); assay: kinase panel; assay type: biochemical
In short: as §1

[11] = molecular target: DAPK2(h) (Homo sapiens, UniProt Q9UIK4); assay: kinase panel; assay type: biochemical
In short: as §1

[12] = molecular target: p70S6K(h) (Homo sapiens, UniProt P23443); assay: kinase panel; assay type: biochemical
In short: as §1

[13] = molecular target: CLK3(h) (Homo sapiens, UniProt P49761); assay: kinase panel; assay type: biochemical
In short: as §1

[14] = molecular target: TSSK1(h) (Homo sapiens, UniProt Q9BXA7); assay: kinase panel; assay type: biochemical
In short: as §1

[15] = molecular target: PrKX(h) (Homo sapiens, UniProt P51817); assay: kinase panel; assay type: biochemical
In short: as §1

[16] = molecular target: Ros(h) (Homo sapiens, UniProt P08922); assay: kinase panel; assay type: biochemical
In short: as §1

[17] = molecular target: GRK6(h) (Homo sapiens, UniProt P43250); assay: kinase panel; assay type: biochemical
In short: as §1

[18] = molecular target: Lyn(h) (Homo sapiens, UniProt P07948); assay: kinase panel; assay type: biochemical
In short: as §1

[19] = molecular target: WNK2(h) (Homo sapiens, UniProt Q9Y3S1); assay: kinase panel; assay type: biochemical
In short: as §1

[20] = molecular target: SGK3(h) (Homo sapiens, UniProt Q96BR1); assay: kinase panel; assay type: biochemical
In short: as §1

[21] = molecular target: AMPKα2(h) (Homo sapiens, UniProt P54646); assay: kinase panel; assay type: biochemical
In short: as §1

[22] = molecular target: MSSK1(h) (Homo sapiens, UniProt Q9UPE1); assay: kinase panel; assay type: biochemical
In short: as §1

[23] = molecular target: STK33(h) (Homo sapiens, UniProt Q9BYT3); assay: kinase panel; assay type: biochemical
In short: as §1

[24] = molecular target: DCAMKL2(h) (Homo sapiens, UniProt Q8N568); assay: kinase panel; assay type: biochemical
In short: as §1

[25] = molecular target: Fgr(h) (Homo sapiens, UniProt P09769); assay: kinase panel; assay type: biochemical
In short: as §1

[26] = molecular target: TGFBR1(h) (Homo sapiens, UniProt P36897); assay: kinase panel; assay type: biochemical
In short: as §1

[27] = molecular target: CK1γ3(h) (Homo sapiens, UniProt Q9Y6M4); assay: kinase panel; assay type: biochemical
In short: as §1

[28] = molecular target: Fer(h) (Homo sapiens, UniProt P16591); assay: kinase panel; assay type: biochemical
In short: as §1

[29] = test system: MLCK(h); assay: kinase panel; assay type: biochemical, human; conditions: 1 μM
From the text: We profiled three compounds from the series across the kinome (Table S1).
Ta b l e S1. The % inhibition of compounds 4, 5r [SU1261], and 6g [SU1349] against a
panel of kinase enzymes. We proϐiled three compounds from the series across 231
kinases. For SU1349, given its structural similarity with SU1261, we selected 98 from the
Tested kinase % inhibiƟon

[30] = Mouse hepatocyte intrinsic clearance and half-life; assay type: in vitro ADME; conditions: mouse CD1 hepatocytes; for half-life at 1 µM: cryopreserved pooled hepatocytes; for Mouse Hepatocyte Clearance: 1 µM
Protocol: Intrinsic clearance and half-life were determined using cryopreserved pooled mouse CD1 hepatocytes. Test compounds were analysed at 1 µM in Williams Media E buffer (0.01% DMSO) at a cell density of 0.5 × 10^6 cells mL^–1. Cells were incubated at 37 °C for one hour with shaking, and compound depletion was measured by LC-MS/MS at six time points (0.25, 5, 10, 20, 40, and 60 min).

Chain of TGFBR1(h) (P36897 34-503): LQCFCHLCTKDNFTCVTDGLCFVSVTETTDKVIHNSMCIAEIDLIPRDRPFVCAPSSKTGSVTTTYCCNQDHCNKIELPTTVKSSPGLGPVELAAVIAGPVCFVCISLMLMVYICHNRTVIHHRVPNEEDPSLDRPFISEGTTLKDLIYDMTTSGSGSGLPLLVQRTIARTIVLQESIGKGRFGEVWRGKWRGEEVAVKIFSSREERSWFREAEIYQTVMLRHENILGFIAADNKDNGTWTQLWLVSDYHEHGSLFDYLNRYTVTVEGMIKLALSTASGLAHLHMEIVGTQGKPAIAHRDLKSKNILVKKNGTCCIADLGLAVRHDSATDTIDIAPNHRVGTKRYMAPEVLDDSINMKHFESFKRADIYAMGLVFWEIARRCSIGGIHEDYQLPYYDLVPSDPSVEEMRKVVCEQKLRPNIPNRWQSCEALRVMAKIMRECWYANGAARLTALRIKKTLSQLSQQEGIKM
Chain of DCAMKL2(h) (Q8N568 whole entry): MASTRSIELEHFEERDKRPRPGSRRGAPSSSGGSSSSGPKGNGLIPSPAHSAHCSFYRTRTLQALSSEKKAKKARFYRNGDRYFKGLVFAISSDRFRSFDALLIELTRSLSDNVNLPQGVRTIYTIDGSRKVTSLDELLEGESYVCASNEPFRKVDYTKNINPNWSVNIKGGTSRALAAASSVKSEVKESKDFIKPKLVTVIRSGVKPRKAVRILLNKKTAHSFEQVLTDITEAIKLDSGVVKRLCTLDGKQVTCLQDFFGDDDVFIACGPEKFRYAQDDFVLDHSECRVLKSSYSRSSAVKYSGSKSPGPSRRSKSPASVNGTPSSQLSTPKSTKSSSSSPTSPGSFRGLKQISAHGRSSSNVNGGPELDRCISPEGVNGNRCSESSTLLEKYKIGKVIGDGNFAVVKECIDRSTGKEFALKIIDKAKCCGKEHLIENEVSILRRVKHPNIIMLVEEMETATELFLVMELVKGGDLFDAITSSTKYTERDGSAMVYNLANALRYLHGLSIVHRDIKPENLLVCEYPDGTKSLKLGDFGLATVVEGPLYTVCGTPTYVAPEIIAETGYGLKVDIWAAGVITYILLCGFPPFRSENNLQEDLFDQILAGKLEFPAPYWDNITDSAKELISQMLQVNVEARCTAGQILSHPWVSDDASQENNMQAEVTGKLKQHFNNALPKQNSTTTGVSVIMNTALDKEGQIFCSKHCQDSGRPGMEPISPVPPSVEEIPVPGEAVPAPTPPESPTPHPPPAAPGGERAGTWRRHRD
Chain of PrKX(h) (P51817 whole entry): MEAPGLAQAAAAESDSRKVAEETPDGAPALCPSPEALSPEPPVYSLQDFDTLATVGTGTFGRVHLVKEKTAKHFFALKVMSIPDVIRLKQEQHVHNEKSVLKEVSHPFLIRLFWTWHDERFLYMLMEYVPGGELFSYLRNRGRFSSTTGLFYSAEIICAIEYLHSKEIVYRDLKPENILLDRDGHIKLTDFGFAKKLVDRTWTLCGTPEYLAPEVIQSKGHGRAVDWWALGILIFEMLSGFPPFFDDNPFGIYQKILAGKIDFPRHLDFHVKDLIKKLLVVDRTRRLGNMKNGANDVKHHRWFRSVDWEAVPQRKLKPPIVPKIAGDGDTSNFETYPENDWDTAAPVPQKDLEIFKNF
Chain of MSSK1(h) (Q9UPE1 whole entry): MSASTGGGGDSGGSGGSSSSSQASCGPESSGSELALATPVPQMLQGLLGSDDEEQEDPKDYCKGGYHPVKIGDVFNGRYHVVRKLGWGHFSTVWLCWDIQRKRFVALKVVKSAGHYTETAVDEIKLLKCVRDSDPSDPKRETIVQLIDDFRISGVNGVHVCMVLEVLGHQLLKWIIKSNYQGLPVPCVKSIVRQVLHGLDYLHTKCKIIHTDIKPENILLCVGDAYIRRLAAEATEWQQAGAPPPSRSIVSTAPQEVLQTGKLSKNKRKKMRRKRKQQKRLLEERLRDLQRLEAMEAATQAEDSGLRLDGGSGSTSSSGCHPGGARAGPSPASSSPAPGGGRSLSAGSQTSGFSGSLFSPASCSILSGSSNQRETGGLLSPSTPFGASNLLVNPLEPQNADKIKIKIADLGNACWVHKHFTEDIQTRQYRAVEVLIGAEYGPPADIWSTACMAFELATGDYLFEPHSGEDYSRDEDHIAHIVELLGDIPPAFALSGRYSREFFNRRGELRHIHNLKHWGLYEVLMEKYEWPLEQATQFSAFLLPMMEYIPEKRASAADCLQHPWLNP
Chain of GRK6(h) (P43250 whole entry): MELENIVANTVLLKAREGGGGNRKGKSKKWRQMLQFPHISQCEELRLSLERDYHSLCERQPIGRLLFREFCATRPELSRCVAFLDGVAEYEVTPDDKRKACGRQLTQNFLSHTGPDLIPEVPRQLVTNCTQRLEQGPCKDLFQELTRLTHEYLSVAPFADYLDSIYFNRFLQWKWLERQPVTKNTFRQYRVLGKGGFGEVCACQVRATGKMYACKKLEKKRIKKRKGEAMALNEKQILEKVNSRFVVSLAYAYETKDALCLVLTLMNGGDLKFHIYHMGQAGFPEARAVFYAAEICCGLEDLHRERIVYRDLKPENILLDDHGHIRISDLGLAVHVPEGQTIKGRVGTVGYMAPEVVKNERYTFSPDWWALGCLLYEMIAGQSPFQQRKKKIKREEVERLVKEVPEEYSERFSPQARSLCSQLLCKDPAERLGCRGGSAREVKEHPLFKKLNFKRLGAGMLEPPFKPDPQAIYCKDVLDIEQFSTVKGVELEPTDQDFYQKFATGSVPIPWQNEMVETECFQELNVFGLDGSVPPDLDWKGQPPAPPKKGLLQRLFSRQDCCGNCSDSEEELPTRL
Chain of p70S6K(h) (P23443 whole entry): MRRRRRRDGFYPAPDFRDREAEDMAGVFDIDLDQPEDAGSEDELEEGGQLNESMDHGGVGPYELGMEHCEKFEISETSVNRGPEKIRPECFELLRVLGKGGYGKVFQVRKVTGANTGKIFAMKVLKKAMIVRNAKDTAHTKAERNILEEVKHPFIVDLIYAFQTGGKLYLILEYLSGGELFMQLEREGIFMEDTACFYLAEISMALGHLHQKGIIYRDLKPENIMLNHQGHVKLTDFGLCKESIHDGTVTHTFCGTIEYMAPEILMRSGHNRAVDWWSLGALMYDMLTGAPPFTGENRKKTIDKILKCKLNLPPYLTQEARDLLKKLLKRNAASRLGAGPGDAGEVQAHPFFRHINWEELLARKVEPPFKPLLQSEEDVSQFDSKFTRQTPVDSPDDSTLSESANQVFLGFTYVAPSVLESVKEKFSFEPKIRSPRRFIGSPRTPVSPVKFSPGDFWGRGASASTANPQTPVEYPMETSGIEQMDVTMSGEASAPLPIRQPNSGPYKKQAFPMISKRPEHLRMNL
Chain of AMPKα2(h) (P54646 whole entry): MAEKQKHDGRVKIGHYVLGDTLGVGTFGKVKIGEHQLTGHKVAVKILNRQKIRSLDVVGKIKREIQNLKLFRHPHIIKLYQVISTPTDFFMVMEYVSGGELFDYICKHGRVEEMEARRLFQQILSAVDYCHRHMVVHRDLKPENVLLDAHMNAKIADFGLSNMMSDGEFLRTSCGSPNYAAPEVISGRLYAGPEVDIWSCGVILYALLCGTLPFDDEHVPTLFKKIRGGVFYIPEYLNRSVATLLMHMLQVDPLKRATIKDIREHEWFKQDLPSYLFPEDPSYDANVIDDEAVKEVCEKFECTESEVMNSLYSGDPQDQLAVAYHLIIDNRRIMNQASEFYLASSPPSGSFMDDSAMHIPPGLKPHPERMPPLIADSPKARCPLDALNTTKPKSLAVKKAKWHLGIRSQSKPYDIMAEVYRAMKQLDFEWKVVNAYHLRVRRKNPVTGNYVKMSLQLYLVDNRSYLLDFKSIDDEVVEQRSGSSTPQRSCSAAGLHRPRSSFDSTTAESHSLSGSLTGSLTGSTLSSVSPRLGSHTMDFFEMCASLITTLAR
Chain of AMPKα2(h) (Q9Y478 whole entry partner): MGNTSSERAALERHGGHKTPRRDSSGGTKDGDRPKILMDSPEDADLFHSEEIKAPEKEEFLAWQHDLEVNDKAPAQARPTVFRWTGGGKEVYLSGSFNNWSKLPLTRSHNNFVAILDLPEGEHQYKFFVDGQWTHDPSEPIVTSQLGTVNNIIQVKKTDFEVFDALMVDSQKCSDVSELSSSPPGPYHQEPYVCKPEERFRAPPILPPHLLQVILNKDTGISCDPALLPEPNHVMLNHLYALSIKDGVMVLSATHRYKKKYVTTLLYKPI
Chain of AMPKα2(h) (P54619 whole entry partner): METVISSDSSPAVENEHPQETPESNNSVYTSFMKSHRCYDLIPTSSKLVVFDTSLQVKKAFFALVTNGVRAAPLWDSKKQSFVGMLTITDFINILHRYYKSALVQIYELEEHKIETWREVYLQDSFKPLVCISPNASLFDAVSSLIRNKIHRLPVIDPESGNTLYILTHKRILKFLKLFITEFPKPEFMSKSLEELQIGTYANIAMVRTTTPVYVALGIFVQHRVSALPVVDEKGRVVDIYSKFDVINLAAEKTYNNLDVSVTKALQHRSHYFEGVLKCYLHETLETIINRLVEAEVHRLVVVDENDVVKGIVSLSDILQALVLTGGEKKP
Chain of SGK3(h) (Q96BR1 whole entry): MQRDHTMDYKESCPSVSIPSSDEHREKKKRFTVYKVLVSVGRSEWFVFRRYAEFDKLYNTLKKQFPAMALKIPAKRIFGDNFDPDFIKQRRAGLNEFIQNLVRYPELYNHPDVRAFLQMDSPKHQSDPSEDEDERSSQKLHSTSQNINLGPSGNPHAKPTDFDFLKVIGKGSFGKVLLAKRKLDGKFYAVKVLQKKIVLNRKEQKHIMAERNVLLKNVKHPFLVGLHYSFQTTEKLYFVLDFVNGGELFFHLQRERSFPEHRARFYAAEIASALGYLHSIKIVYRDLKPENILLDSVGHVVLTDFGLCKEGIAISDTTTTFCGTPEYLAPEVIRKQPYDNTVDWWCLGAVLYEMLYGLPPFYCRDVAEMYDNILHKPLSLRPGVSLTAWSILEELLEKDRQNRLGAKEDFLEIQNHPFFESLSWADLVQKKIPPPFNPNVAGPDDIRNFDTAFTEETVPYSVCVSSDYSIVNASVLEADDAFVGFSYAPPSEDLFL

inhibition at 1 µM [1] [%] | inhibition at 1 µM [2] [%] | inhibition at 1 µM [3] [%] | inhibition at 1 µM [4] [%] | inhibition at 1 µM [5] [%] | inhibition at 1 µM [6] [%] | inhibition at 1 µM [7] [%] | inhibition at 1 µM [8] [%] | inhibition at 1 µM [9] [%] | inhibition at 1 µM [10] [%] | inhibition at 1 µM [11] [%] | inhibition at 1 µM [12] [%] | inhibition at 1 µM [13] [%] | inhibition at 1 µM [14] [%] | inhibition at 1 µM [15] [%] | inhibition at 1 µM [16] [%] | inhibition at 1 µM [17] [%] | inhibition at 1 µM [18] [%] | inhibition at 1 µM [19] [%] | inhibition at 1 µM [20] [%] | Compound | also measured
-18 | 4 | 28 | 5 | -6 | -14 | -6 | 20 | 6 | -1 | 13 | -15 | 23 | 14 | -22 | 11 | -8 | 31 | 22 | -27 | Nc1n[nH]c2ccc(-c3ccnc4[nH]c(-c5cccc(OCc6ccccc6)c5)cc34)cc12 [Compound 5r [SU1261]] | inhibition at 1 µM [21]: 13%; inhibition at 1 µM [22]: 13%; inhibition at 1 µM [23]: 25%; inhibition at 1 µM [24]: 6%; inhibition at 1 µM [25]: 33%; inhibition at 1 µM [26]: 21%; inhibition at 1 µM [27]: 19%; inhibition at 1 µM [28]: -16%; % inhibition MLCK(h) [29]: -10%; half-life at 1 µM [30]: 36 min; Mouse Hepatocyte Clearance [30]: 38 μL/min/10^6 Cells
 |  |  |  |  |  |  |  |  |  |  |  |  |  |  |  |  |  |  |  | Nc1n[nH]c2ccc(-c3ccnc4[nH]c(-c5ccnc(OCc6ccccc6)c5)cc34)cc12 [Compound 6g [SU1349]] | half-life at 1 µM [30]: 51 min; Mouse Hepatocyte Clearance [30]: 27 μL/min/10^6 Cells
-13 | 5 | 49 | 25 | 4 | 0 | 29 | 18 | 8 | 29 | 2 | 33 | 74 | 34 | -21 | 16 | 0 | 77 | 29 | -8 | Nc1n[nH]c2ccc(-c3ccnc4[nH]c(-c5ccccc5)cc34)cc12 [Compound 4] | inhibition at 1 µM [21]: 43%; inhibition at 1 µM [22]: 12%; inhibition at 1 µM [23]: 38%; inhibition at 1 µM [24]: 33%; inhibition at 1 µM [25]: 54%; inhibition at 1 µM [26]: 28%; inhibition at 1 µM [27]: 29%; inhibition at 1 µM [28]: 7%; % inhibition MLCK(h) [29]: 0%
